Patent US20100130516A1, “PURINYL DERIVATIVES AND THEIR USE AS POTASSIUM CHANNEL MODULATORS” (NeuroSearch A/S, priority 2007, published 2010)

Target: T1, hSK3 channels (Homo sapiens, UniProt Q9UGI6)
T1 construct: expressed in transfected cells; host or cells: HEK293
Assay: Whole-cell patch-clamp recording of ionic current through SK channels (subtype 3)
Format: cell-based
Details: HEK293 cells expressing hSK3 channels
Description: The ionic current through small-conductance Ca^2+-activated K^+ channels (SK channels, subtype 3) is recorded using the whole-cell configuration of the patch-clamp technique in a classic patch-clamp set-up using HEK293 tissue culture cells expressing hSK3 channels as described in e.g. WO 2006/100212.
The SC100 value determined is defined as the Stimulating Concentration required for increasing the baseline current by 100%. The below SC100 value is an indication of the SK3 activating properties of the compound of the invention.

SC100 (Stimulating Concentration required for increasing the baseline current by 100%): 0.04 µM
SMILES: Cc1ccn(-c2nc(Nc3ccc(F)c(F)c3)c3ncn(C)c3n2)n1 [Compound 5.1, (3,4-Difluoro-phenyl)-[9-methyl-2-(3-methyl-pyrazol-1-yl)-9H-purin-6-yl]-amine]
